This is an account of results in US20240299400A1, “Transcription Factor GLI1 Inhibitors and Uses Thereof” (University of Connecticut, priority 2023, published 2024).

One experiment has as its target T1, PDGFRA (Homo sapiens, UniProt P16234).
T1 construct: purchased ThermoFisher Scientific (Madison, WI, USA), contract service
Description: ZLyte kinase assay, PDGFRA. The note with it: average of three replicates. The class given is biochemical. On the procedure:
(§1) Kinase screening experiments. Kinase inhibition/binding experiments were performed by ThermoFisher Scientific (Madison, WI, USA) as a contract service, utilizing their default protocols [G. Yernale, A comprehensive review on the biological interest of quinoline and its derivatives. Bioorg. Med. Chem. 32 (2021) 115973]. Briefly, for ZLyte assay, compound in DMSO (100 nL), kinase buffer (2.4 μL), peptide/kinase mixture (5 μL), and ATP solution (2.5 μL) were mixed in a black 384-well plate. Following a 30 s plate shake to mix reagents, the kinase assay mixture was incubated at RT for 60 min. Following addition of the development reagent solution to each well, another 60 min incubation was performed at RT for reaction development. Fluorescent signal was recorded and subsequently analyzed.

Another experiment concerns the target T2, RET (Homo sapiens, UniProt P07949).
T2 construct: purchased ThermoFisher Scientific (Madison, WI, USA), contract service
Kind of experiment: ZLyte kinase assay, RET. The class given is biochemical. The note with it: average of three replicates. On the procedure:
as §1

Experiment [1] deals with GLI1 mRNA expression. Kind of experiment: RT-qPCR GLI1 mRNA expression in ASZ001 BCC cells. Conditions: Mus musculus, Ave ± SEM, read-out: RT-qPCR, IC50 ASZ001. The class given is cell-based, mouse. Background: Real-time PCR tracks product formation cycle by cycle.
A further experiment has as its target T3, GSK3B (Homo sapiens, UniProt P49841).
T3 construct: purchased ThermoFisher Scientific (Madison, WI, USA), contract service
Description: ZLyte kinase assay, GSK3B. The note with it: average of three replicates. The class given is biochemical. As for the experimental part:
as §1

Experiment [2] relates to GLI1 mRNA expression. Kind of experiment: RT-qPCR GLI1 mRNA expression in Sufu-KO MEFs. The class given is cell-based, mouse. The note with it: for IC50: Mus musculus, Ave ± SEM, read-out: RT-qPCR, IC50 Sufu-KO.
A further experiment concerns the target T4, MAPK1 (Homo sapiens, UniProt P28482).
T4 construct: purchased ThermoFisher Scientific (Madison, WI, USA), contract service
Kind of experiment: ZLyte kinase assay, MAPK1. The class given is biochemical. The note with it: average of three replicates. As for the experimental part:
as §1

The target in the next experiment is T5, CSF1R (Homo sapiens, UniProt P07333).
T5 construct: purchased ThermoFisher Scientific (Madison, WI, USA), contract service
Description: ZLyte kinase assay, CSF1R. The class given is biochemical. The note with it: average of three replicates. On the procedure: as §1

Another experiment deals with T6, SRC kinase (Homo sapiens, UniProt P12931).
T6 construct: purchased ThermoFisher Scientific (Madison, WI, USA), contract service
Description: ZLyte kinase assay, SRC. The class given is biochemical. Conditions: for inhibition at 1 µM: ZLyte, average of three replicates; for concentration-dependent inhibition of SRC kinase (in words): FIG. 6, representative experiment in triplicate. As for the experimental part:
as §1

In another experiment the target is T7, MAPK3 (Homo sapiens, UniProt P27361).
T7 construct: purchased ThermoFisher Scientific (Madison, WI, USA), contract service
Kind of experiment: ZLyte kinase assay, MAPK3. The class given is biochemical. Conditions: average of three replicates. As for the experimental part: as §1

The test system of the next experiment is ASZ001 cells. Description: MTS anti-proliferative assay in ASZ001 cells. Format: cell-based, murine. The note with it: Mus musculus, ASZ001, Ave ± SEM.
A further experiment concerns the target T8, MAP2K2 (Homo sapiens, UniProt P36507).
T8 construct: purchased ThermoFisher Scientific (Madison, WI, USA), contract service
Kind of experiment: ZLyte kinase assay, MAP2K2. Format: biochemical. Conditions: average of three replicates. As for the experimental part:
as §1

The next experiment concerns the target T9, TGFBR1 (Homo sapiens, UniProt P36897).
T9 construct: purchased ThermoFisher Scientific (Madison, WI, USA), contract service
T9 sequence (P36897 34-503): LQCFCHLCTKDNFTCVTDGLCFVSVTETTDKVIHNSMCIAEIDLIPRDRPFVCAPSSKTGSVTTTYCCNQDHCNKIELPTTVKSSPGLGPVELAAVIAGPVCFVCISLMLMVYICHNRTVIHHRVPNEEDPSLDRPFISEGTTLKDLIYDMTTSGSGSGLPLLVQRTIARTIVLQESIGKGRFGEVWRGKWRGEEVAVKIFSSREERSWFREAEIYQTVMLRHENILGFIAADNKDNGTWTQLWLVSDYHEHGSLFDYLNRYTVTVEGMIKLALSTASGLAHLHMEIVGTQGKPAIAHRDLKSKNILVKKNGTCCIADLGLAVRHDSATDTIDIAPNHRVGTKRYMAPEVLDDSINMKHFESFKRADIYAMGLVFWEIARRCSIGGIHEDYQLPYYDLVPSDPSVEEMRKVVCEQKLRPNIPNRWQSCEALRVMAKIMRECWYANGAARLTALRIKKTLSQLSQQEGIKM
Kind of experiment: LanthaScreen binding assay, TGFBR1. Conditions: average of three replicates, read-out: % inhibition of the kinase TGFBR1. On the procedure: as §1
For the LanthaScreen Binding assay, compounds in DMSO (160 nL), kinase buffer (3.84 μL), kinase/antibody mixture (8.0 μL), and tracer (4.0 μL) were mixed in a white 384-well plate. Following a 30 s plate shake to mix the reagents, the kinase assay mixture was incubated at RT for 60 min. Fluorescent signals were recorded and subsequently analyzed.
In general terms: TR-FRET usually uses a lanthanide donor and a delayed reading to cut background.

A further experiment addresses T10, DYRK1B (Homo sapiens, UniProt Q9Y463).
T10 construct: purchased ThermoFisher Scientific (Madison, WI, USA), contract service
Description: ZLyte kinase assay, DYRK1B. The class given is biochemical. The note with it: average of three replicates. As for the experimental part:
as §1

T1 sequence (P16234 24-1089): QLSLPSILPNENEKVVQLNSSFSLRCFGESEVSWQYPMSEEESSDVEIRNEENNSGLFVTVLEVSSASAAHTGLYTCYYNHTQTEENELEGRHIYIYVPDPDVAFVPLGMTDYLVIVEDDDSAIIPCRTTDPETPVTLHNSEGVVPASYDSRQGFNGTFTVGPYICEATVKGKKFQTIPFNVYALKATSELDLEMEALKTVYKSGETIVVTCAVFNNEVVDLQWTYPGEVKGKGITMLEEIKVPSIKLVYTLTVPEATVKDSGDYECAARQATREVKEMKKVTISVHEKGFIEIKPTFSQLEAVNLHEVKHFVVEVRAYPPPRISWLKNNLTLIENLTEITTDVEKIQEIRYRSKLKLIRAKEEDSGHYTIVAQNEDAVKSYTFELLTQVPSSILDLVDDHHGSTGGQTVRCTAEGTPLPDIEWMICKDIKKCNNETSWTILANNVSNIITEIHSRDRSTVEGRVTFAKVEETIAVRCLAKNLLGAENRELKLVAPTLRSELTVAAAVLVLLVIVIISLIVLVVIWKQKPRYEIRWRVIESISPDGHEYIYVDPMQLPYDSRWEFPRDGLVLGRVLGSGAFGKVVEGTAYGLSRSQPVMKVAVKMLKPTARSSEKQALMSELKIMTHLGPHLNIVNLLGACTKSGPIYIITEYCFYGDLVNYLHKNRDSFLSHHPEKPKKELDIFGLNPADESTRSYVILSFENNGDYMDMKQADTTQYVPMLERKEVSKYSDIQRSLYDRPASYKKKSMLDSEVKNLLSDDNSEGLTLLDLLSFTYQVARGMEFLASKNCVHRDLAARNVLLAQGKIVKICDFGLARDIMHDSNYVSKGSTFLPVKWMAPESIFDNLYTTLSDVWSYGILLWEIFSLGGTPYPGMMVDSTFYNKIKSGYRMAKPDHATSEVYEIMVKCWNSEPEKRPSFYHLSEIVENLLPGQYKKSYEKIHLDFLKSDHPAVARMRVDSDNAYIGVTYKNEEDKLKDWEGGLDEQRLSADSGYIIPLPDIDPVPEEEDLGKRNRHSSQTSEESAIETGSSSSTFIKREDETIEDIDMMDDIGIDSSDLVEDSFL
T6 sequence (P12931 whole entry): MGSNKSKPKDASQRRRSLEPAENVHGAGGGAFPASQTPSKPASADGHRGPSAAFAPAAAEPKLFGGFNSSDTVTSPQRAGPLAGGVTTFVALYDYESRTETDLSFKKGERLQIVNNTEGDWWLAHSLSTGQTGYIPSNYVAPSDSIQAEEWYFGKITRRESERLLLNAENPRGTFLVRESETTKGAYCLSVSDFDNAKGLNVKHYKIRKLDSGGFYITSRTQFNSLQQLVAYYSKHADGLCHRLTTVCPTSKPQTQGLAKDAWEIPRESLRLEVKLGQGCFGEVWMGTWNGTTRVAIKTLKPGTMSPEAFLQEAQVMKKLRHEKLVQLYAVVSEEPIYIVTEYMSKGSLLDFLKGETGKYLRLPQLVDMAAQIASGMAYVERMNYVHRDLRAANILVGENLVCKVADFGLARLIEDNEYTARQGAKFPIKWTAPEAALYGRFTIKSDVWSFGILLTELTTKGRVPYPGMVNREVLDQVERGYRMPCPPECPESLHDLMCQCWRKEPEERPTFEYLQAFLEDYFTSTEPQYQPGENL
T10 sequence (Q9Y463 whole entry): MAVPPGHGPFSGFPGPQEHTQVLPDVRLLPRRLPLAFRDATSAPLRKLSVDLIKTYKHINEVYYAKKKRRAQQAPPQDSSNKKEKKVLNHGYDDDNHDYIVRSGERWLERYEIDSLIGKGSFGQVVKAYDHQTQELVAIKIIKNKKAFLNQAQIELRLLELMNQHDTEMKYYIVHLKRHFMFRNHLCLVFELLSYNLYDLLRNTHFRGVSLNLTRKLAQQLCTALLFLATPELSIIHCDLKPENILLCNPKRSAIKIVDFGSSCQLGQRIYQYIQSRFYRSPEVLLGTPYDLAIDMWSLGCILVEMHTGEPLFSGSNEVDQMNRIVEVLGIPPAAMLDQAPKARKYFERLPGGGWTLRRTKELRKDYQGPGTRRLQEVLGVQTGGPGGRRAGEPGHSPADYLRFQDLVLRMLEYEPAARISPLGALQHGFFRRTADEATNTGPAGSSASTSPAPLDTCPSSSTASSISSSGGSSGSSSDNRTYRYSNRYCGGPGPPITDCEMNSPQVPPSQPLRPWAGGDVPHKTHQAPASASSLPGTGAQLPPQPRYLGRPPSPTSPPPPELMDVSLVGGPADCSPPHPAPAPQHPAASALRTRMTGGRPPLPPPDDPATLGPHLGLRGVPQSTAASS
T4 sequence (P28482 whole entry): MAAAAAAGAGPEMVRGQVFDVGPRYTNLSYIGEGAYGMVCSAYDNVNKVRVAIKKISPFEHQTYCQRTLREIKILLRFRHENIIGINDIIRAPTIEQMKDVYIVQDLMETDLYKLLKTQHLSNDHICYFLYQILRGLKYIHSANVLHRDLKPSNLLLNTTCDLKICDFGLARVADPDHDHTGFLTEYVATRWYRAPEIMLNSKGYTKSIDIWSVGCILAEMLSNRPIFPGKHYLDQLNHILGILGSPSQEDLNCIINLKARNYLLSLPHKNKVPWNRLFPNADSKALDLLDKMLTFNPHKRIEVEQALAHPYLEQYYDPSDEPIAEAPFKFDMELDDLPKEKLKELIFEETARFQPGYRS
T7 sequence (P27361 whole entry): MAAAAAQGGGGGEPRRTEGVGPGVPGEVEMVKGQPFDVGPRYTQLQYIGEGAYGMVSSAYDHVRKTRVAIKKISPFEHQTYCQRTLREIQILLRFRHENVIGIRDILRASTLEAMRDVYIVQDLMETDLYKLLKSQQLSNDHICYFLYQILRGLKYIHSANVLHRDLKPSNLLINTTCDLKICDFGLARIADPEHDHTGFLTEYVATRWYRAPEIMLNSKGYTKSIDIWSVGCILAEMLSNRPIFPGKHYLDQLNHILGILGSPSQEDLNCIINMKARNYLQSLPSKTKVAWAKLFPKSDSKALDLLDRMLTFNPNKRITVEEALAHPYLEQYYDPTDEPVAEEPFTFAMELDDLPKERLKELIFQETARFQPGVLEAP
T8 sequence (P36507 whole entry): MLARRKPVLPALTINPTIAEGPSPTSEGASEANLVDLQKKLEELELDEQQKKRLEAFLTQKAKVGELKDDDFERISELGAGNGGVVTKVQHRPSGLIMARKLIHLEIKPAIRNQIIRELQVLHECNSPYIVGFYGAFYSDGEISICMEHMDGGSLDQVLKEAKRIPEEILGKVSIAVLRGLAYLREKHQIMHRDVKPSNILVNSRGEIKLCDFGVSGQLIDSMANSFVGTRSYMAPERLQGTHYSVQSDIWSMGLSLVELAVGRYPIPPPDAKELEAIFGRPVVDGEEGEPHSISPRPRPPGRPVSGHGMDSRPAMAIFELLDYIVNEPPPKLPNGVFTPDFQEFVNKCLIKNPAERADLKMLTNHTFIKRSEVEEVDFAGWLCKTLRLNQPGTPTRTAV
T3 sequence (P49841 whole entry): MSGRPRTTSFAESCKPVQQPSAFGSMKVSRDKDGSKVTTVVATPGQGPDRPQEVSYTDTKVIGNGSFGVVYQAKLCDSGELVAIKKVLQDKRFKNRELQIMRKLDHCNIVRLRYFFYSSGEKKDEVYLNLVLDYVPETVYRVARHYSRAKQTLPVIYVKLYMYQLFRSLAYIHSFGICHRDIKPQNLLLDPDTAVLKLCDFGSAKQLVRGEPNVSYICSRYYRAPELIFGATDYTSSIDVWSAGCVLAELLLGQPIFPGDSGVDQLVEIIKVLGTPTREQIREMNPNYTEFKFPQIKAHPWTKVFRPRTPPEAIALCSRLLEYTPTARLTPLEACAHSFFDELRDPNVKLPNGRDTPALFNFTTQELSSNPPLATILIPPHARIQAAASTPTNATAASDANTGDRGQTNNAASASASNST
T2 sequence (P07949 29-1114): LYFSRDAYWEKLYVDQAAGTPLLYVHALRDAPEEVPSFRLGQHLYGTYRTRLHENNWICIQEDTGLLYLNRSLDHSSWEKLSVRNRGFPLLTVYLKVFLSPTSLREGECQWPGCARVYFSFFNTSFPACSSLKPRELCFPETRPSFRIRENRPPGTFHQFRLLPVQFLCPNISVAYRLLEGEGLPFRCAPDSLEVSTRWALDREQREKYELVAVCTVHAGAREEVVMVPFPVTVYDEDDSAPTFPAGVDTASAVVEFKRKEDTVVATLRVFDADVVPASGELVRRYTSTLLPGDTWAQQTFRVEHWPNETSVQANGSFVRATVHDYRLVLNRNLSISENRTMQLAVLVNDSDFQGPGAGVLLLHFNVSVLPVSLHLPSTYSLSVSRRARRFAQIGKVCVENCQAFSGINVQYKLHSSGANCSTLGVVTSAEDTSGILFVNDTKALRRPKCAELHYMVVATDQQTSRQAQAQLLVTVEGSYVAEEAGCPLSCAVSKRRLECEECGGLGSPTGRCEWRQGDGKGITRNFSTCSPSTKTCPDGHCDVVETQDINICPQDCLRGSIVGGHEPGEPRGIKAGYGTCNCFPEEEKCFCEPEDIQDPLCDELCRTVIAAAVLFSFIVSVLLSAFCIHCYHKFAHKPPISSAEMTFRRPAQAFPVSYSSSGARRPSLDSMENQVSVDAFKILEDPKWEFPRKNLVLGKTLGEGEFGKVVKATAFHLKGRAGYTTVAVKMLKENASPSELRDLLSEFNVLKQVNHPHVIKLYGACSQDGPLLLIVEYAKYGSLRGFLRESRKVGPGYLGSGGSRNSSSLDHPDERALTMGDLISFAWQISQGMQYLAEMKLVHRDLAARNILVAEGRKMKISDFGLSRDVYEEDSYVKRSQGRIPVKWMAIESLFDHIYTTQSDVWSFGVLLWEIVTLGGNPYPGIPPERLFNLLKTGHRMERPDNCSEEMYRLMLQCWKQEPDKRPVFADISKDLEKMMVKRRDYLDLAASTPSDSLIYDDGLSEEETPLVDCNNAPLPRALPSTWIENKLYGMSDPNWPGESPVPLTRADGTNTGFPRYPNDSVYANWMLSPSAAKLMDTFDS

Take `Cc1ccc2ccc(C(Nc3ccccn3)c3ccncc3)c(O)c2n1` (stereo not shown) [Compound 39, 7-((Pyridin-4-yl)(pyridin-2-ylamino)methyl)-2-methylquinolin-8-ol]: the inhibition at 1 µM on PDGFRA turned out to be 0%; at RET, 8%; against GSK3B, 1%; against MAPK1, 7%; on CSF1R, 10%; at SRC kinase, 46%. For the same compound, the inhibition at 1 µM worked out at 2% against MAPK3, 14% at MAP2K2, 2% at TGFBR1 and 3% at DYRK1B. The IC50 is 1900 ± 500 nM in the experiment with GLI1 mRNA expression [1] (ASZ001, Table 7, GLI1 mRNA) and 2900 ± 1900 nM with GLI1 mRNA expression [2] (Table 7, GLI1 mRNA). Besides, the “concentration-dependent inhibition of SRC kinase (in words)” value (shortened to “concentration-dependent inhibition”) at SRC kinase is listed as “inhibit SRC kinase in a concentration-dependent fashion”. Further, in the experiment with ASZ001 cells (Table 7, 48 h), halving of growth (GI50) required 3900 ± 1200 nM.
For the compound `Cc1ccc2ccc(C(Nc3ccccn3)c3ccc(N4CCCC4=O)cc3)c(O)c2n1` (stereo not shown) [Compound 48, 7-((4-(2-Oxopyrrolidin-1-yl)phenyl)(pyridin-2-ylamino)methyl)-2-methylquinolin-8-ol], the inhibition at 1 µM was determined as 1% at PDGFRA; 5% on RET; 4% on GSK3B; 12% on MAPK1; 8% at CSF1R; 39% against SRC kinase. In addition, the inhibition at 1 µM against MAPK3 was 7%; on MAP2K2, 16%; at TGFBR1 it was -2%; on DYRK1B, 5%. For the same compound, the IC50 in the experiment on GLI1 mRNA expression [1] (ASZ001, Table 7, GLI1 mRNA) stood at 610 ± 340 nM; in the experiment with GLI1 mRNA expression [2] (Table 7, GLI1 mRNA), 820 ± 270 nM. Moreover, the “concentration-dependent inhibition” value at SRC kinase is reported as “inhibit SRC kinase in a concentration-dependent fashion”. The compound further showed a GI50 in the experiment with ASZ001 cells (Table 7, 48 h) of 19600 ± 3600 nM.
As to `CCN(CC)c1ccc(C(Nc2ccccn2)c2ccc3ccc(C)nc3c2OC)cc1` (stereo not shown) [Compound 20, N-((4-Diethylaminophenyl)(8-methoxy-2-methylquinolin-7-yl)methyl)pyridin-2-amine], the inhibition at 1 µM is 0% at PDGFRA; 6% against RET; -1% on GSK3B; 10% against MAPK1; 8% on CSF1R; 45% against SRC kinase. Also, the inhibition at 1 µM came out at 4% on MAPK3, 12% on MAP2K2, 6% on TGFBR1 and 3% against DYRK1B. Moreover, the IC50 was 1300 ± 300 nM in the experiment with GLI1 mRNA expression [1] (ASZ001, Table 5, GLI1 mRNA) and greater than 25000 nM with GLI1 mRNA expression [2] (Table 5, GLI1 mRNA). Moreover, the “anti-GLI1 activity in Sufu-KO cells (in words)” value in the experiment on GLI1 mRNA expression [2] is “inactive”. Besides, the “concentration-dependent inhibition” value at SRC kinase was “inhibit SRC kinase in a concentration-dependent fashion”. This compound also yielded a GI50 with ASZ001 cells (Table 5, 48 h) greater than 100000 nM.

What is called inhibition is the relative decrease from the control value, in per cent. The term IC50 denotes the concentration needed to halve the response being measured. The term GI50 denotes the concentration that inhibits growth by half.
